Legend:
[1] = Stability in simulated intestinal fluid (SIF); assay type: in vitro ADME; conditions: pig, simulated intestinal fluid (SIF) with porcine pancreatin, pH 6.8, 15 μL of 1 mM peptide stock in 285 μL SIF, 37 °C, samples 0 min-24 h quenched with 5% aqueous TFA, RP-HPLC/LC-MS peak area as % of time 0, exponential one-phase decay fit, read-out: t1/2 in SIF
Method in brief: (§1)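 Peptides incubated at 37 °C in SGF (pepsin, pH 1.3) or SIF (porcine pancreatin, pH 6.8), sampled from 0 min to 24 h. Remaining peptide quantified by RP-HPLC peak area as % of time 0, with t1/2 from one-phase exponential decay fit. Metabolites identified by LC-MS.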

[2] = Stability in simulated gastric fluid (SGF); assay type: in vitro ADME, porcine; conditions: simulated gastric fluid (SGF) with pepsin, pH 1.3, 15 μL of 1 mM peptide stock in 285 μL SGF, 37 °C, samples 0 min-24 h quenched with 0.2 M Na2CO3, RP-HPLC/LC-MS peak area as % of time 0, exponential one-phase decay fit, read-out: t1/2 in SGF
Method in brief: as §1

human erythrocytes = assay: Hemolysis analysis; assay type: cell-based; conditions: 1 h, 37 °C, absorbance 405 nm, 0.2–25 μM final concentration, two independent experiments
Description: Considering the therapeutic potential of TFF3, it was important to determine any cytotoxic and hemolytic effects early on to avoid problems in later stages of drug development. We therefore assessed cytotoxicity on HEK-293 cells and hemolytic effects in human erythrocytes. We treated the cells with TFF3(C^57Acm) and TFF3 homodimer and used resazurin, a blue dye that produces strong fluorescence when reduced by living cells, as the readout of the number of viable cells.[60] In the hemolytic assay, we evaluated hemoglobin release, an indicator of erythrocyte lysis, upon exposure to the peptides.
Monomeric and homodimeric TFF3 were serially diluted twofold in 0.9% NaCl and seeded (25 μL) in a 384-well polypropylene plate (0.2–25 μM final concentration). […] The cells were counted using a Neubauer hemocytometer and then diluted to 1 × 10^8/mL in 0.9% NaCl. […] Following incubation, the plates were centrifuged at 1000g for 10 min to pellet cells and debris and then 25 μL of the supernatant was transferred into a 384-well flat-bottom PS plate and absorbance (Abs) was read at 405 nm using a Tecan M1000 Pro monochromator plate reader. Percent hemolysis was calculated using the following equation: Hemolysis (%) = (Abssample – Absnegative/Abspositive – Absnegative) × 100. […]

CC[C@H](C)[C@@H]1NC(=O)[C@H](CCCNC(=N)N)NC(=O)[C@H](CO)NC(=O)[C@H](CC(=O)O)NC(=O)[C@H](Cc2ccccc2)NC(=O)[C@@H]2CSSC[C@H](NC(=O)[C@H](CCC(N)=O)NC(=O)[C@H](CC(N)=O)NC(=O)[C@H](C)NC(=O)[C@H](CO)NC(=O)[C@H](CC(C)C)NC(=O)CNC(=O)[C@@H](NC(=O)[C@H](Cc3ccc(O)cc3)NC(=O)[C@H](CCC(=O)O)NC(=O)[C@@H](N)CCC(=O)O)C(C)C)C(=O)N[C@@H](C)C(=O)N[C@@H](C(C)C)C(=O)N3CCC[C@H]3C(=O)N[C@@H](C)C(=O)N[C@@H](CCCCN)C(=O)N[C@@H](CC(=O)O)C(=O)N[C@@H](CCCNC(=N)N)C(=O)N[C@@H](C(C)C)C(=O)N[C@@H](CC(=O)O)C(=O)N[C@H]3CSSC[C@H](NC(=O)CNC(=O)[C@H](CCCNC(=N)N)NC(=O)[C@H](CC(N)=O)NC(=O)[C@H](CC(N)=O)NC(=O)[C@H](CSSC[C@@H](C(=O)N[C@@H](Cc4ccccc4)C(=O)N[C@@H](CCCCN)C(=O)N4CCC[C@H]4C(=O)N[C@@H](CC(C)C)C(=O)N[C@@H](CCC(N)=O)C(=O)N[C@@H](CCC(=O)O)C(=O)N[C@@H](C)C(=O)N[C@@H](CCC(=O)O)C(=O)N[C@@H](CSCNC(C)=O)C(=O)N[C@H](C(=O)N[C@@H](Cc4ccccc4)C(=O)O)[C@@H](C)O)NC(=O)[C@H](Cc4c[nH]c5ccccc45)NC(=O)[C@@H]4CCCN4C(=O)[C@H](C(C)C)NC(=O)CNC(=O)[C@@H]4CCCN4C1=O)NC(=O)[C@H](CCC(=O)O)NC(=O)[C@H](CCCCN)NC(=O)[C@@H]1CCCN1C(=O)[C@H]([C@@H](C)O)NC(=O)[C@H](C(C)C)NC(=O)[C@H](Cc1c[nH]cn1)NC(=O)[C@@H]1CCCN1C(=O)[C@H](Cc1ccc(O)cc1)NC(=O)CNC3=O)C(=O)N2 [TFF3(C^57Acm)]
half-life at 50 μM [1]: < 5 min
half-life at 50 μM [2]: < 5 min
concentration up to which no hemolytic effect was displayed (human erythrocytes): > 25 µM

Source: paper PMC8273887 (Journal of Medicinal Chemistry, 2021)
